Results published in paper PMC5504357, “Antifungal Potential of Copper(II), Manganese(II) and Silver(I) 1,10-Phenanthroline Chelates Against Multidrug-Resistant Fungal Species Forming the Candida haemulonii Complex: Impact on the Planktonic and Biofilm Lifestyles” (Frontiers in Microbiology, 2017).

Tests used:
A549 cells = assay: Mammalian cell toxicity (MTT assay) and selectivity index; format: cell-based, Human; settings: MTT, 48 h incubation
Method in brief: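 A549 cells were exposed to compounds (0.0313–512 μg/mL) in DMEM for 48 h at 37 °C, 5% CO2. Viability was measured by MTT (3 h, dark), with formazan dissolved in DMSO and read at 450 nm. CC50 was derived, and SI calculated as A549 CC50 divided by C. haemulonii complex GM-MIC.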

C. haemulonii complex = assay: Planktonic growth, overall across all nine isolates; format: cell-based, Candida haemulonii complex; settings: geometric mean across all nine strains; for MIC: in μM, read-out: Overall GM-MIC
Method in brief: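 Pooled figure: geometric mean of MICs from all nine complex isolates. Individual MICs came from 48 h, 37°C RPMI 1640 microdilution cultures (CLSI M27-A3, 0.0625-32 mg/L), judged by eye as no growth; DMSO vehicle dilutions ran alongside.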

Candida duobushaemulonii [1] = assay: Planktonic growth, broth microdilution (CLSI M27-A3), MIC; format: cell-based; settings: for GM-MIC: geometric mean of three C. duobushaemulonii isolates; for MIC: planktonic, 48 h, 37°C
Method in brief: (§1)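 Visual read-out: MIC taken as the lowest concentration showing no growth after 48 h incubation at 37°C in RPMI 1640. Compounds were serially diluted from DMSO solutions to 0.0625-32 mg/L, with matching DMSO controls, against three clinical isolates of each species.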

[2] = test system: Candida haemulonii var. vulnera; assay: as above; format: cell-based; settings: for GM-MIC: geometric mean of three C. haemulonii var. vulnera isolates; for MIC: planktonic, 48 h, 37°C
Method in brief: as §1

Candida haemulonii [3] = assay: as above; format: cell-based; settings: for GM-MIC: geometric mean of three C. haemulonii isolates; for MIC: planktonic, 48 h, 37°C
Method in brief: as §1

[4] = test system: Candida haemulonii complex; assay: Biofilm-growing cells, overall across isolates; format: cell-based; settings: for Overall GM-bMIC: geometric mean across strains, values marked * do not include LIP Ch4 (>512); for decrease in activity on going from planktonic to biofilm cells: biofilm MIC versus planktonic MIC
Method in brief: (§2)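 Compounds, tested at the concentrations of the planktonic assays, were applied for 48 h at 37°C to 48 h-old biofilms after PBS washing. Inhibition was judged from XTT reduction, with bMIC as the minimal concentration giving 50% inhibition.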

Candida duobushaemulonii [5] = assay: Biofilm-growing cells, XTT assay, bMIC; format: cell-based; settings: for GM-bMIC: geometric mean, C. duobushaemulonii isolates; for bMIC: mature biofilm, 48 h, 50% inhibition of metabolic activity
Method in brief: as §2

[6] = test system: Candida haemulonii var. vulnera; assay: Biofilm-growing cells, XTT assay, bMIC; format: cell-based; settings: for GM-bMIC: geometric mean, C. haemulonii var. vulnera isolates; for bMIC: mature biofilm, 48 h, 50% inhibition of metabolic activity
Method in brief: as §2

Candida haemulonii [7] = assay: Biofilm-growing cells, XTT assay, bMIC; format: cell-based; settings: for GM-bMIC: geometric mean, C. haemulonii isolates, values marked * do not include LIP Ch4 (>512); for bMIC: mature biofilm, 48 h, 50% inhibition of metabolic activity
Method in brief: as §2

| Compound | A549 (CC50) (A549 cells) | Overall GM-MIC (C. haemulonii complex) | MIC (C. haemulonii complex) | GM-MIC (Candida duobushaemulonii [1]) | MIC (Candida duobushaemulonii [1]; isolate LIP Ch1) | MIC (Candida duobushaemulonii [1]; isolate LIP Ch6) | MIC (Candida duobushaemulonii [1]; isolate LIP Ch8) | GM-MIC [2] | MIC ([2]; isolate LIP Ch5) | MIC ([2]; isolate LIP Ch9) | MIC ([2]; isolate LIP Ch11) | GM-MIC (Candida haemulonii [3]) | MIC (Candida haemulonii [3]; isolate LIP Ch4) | MIC (Candida haemulonii [3]; isolate LIP Ch7) | MIC (Candida haemulonii [3]; isolate LIP Ch12) | Overall GM-bMIC [4] | GM-bMIC (Candida duobushaemulonii [5]) | bMIC (Candida duobushaemulonii [5]; isolate LIP Ch1) | GM-bMIC [6] | bMIC ([6]; isolate LIP Ch9) | also measured |
| --- | --- | --- | --- | --- | --- | --- | --- | --- | --- | --- | --- | --- | --- | --- | --- | --- | --- | --- | --- | --- | --- |
| O.O.O.O.O.O=C([O-])c1ccc(C(=O)[O-])cc1.[Mn+2].c1cnc2c(c1)ccc1cccnc12.c1cnc2c(c1)ccc1cccnc12 [compound 12, [Mn(tereph)(phen)2].5H2O] | 251.94 µg/mL | 4 µg/mL | 5.96 µM | 4 µg/mL | 4 µg/mL | 4 µg/mL | 4 µg/mL | 4 µg/mL | 4 µg/mL | 4 µg/mL | 4 µg/mL | 4 µg/mL | 4 µg/mL | 4 µg/mL | 4 µg/mL | 10.37 mg/L | 16 mg/L | 32 mg/L | 5.04 mg/L | 4 mg/L | Overall GM-bMIC ([4]; in μM): 15.48 µM; bMIC (Candida duobushaemulonii [5]; isolate LIP Ch6): 8 mg/L; bMIC (Candida duobushaemulonii [5]; isolate LIP Ch8): 16 mg/L; bMIC ([6]; isolate LIP Ch5): 2 mg/L; bMIC ([6]; isolate LIP Ch13): 16 mg/L; GM-bMIC (Candida haemulonii [7]): 16^* mg/L; bMIC (Candida haemulonii [7]; isolate LIP Ch4): >512 mg/L; bMIC (Candida haemulonii [7]; isolate LIP Ch7): 16 mg/L; bMIC (Candida haemulonii [7]; isolate LIP Ch14): 16 mg/L |
| O.O.O.O.O.O.O=C([O-])CCCCCCC(=O)[O-].O=C([O-])CCCCCCC(=O)[O-].O=C([O-])CCCCCCC(=O)[O-].O=C([O-])CCCCCCC(=O)[O-].[Mn+2].[Mn+2].[Mn+2].[Mn+2].c1cnc2c(c1)ccc1cccnc12.c1cnc2c(c1)ccc1cccnc12.c1cnc2c(c1)ccc1cccnc12.c1cnc2c(c1)ccc1cccnc12.c1cnc2c(c1)ccc1cccnc12.c1cnc2c(c1)ccc1cccnc12.c1cnc2c(c1)ccc1cccnc12.c1cnc2c(c1)ccc1cccnc12 [compound 13, [Mn2(oda)(phen)4(H2O)2][Mn2(oda)(phen)4(oda)2].4H2O] | >512 µg/mL | 2.16 µg/mL | 0.87 µM | 2.52 µg/mL | 2 µg/mL | 4 µg/mL | 2 µg/mL | 2 µg/mL | 2 µg/mL | 2 µg/mL | 2 µg/mL | 2 µg/mL | 2 µg/mL | 2 µg/mL | 2 µg/mL | 8.72 mg/L | 5.04 mg/L | 4 mg/L | 8 mg/L | 4 mg/L | bMIC (Candida duobushaemulonii [5]; isolate LIP Ch6): 4 mg/L; bMIC (Candida duobushaemulonii [5]; isolate LIP Ch8): 8 mg/L; bMIC ([6]; isolate LIP Ch5): 16 mg/L; bMIC ([6]; isolate LIP Ch13): 8 mg/L; GM-bMIC (Candida haemulonii [7]): 22.63^* mg/L; bMIC (Candida haemulonii [7]; isolate LIP Ch4): >512 mg/L; bMIC (Candida haemulonii [7]; isolate LIP Ch7): 32 mg/L; bMIC (Candida haemulonii [7]; isolate LIP Ch14): 16 mg/L |
| O=C1C(=O)c2cccnc2-c2ncccc21.O=C1C(=O)c2cccnc2-c2ncccc21.[Ag+].[O-][Cl+3]([O-])([O-])[O-] [compound 15, [Ag(phendione)2]ClO4] | 3.76 µg/mL | 1.36 µg/mL | 2.16 µM | 2 µg/mL | 2 µg/mL | 2 µg/mL | 2 µg/mL | 1.26 µg/mL | 2 µg/mL | 1 µg/mL | 1 µg/mL | 1 µg/mL | 1 µg/mL | 1 µg/mL | 1 µg/mL | 16 mg/L | 10.08 mg/L | 8 mg/L | 32 mg/L | 32 mg/L | decrease in activity on going from planktonic to biofilm cells [4]: 11.8 fold; Overall GM-bMIC ([4]; in μM): 25.48 µM; bMIC (Candida duobushaemulonii [5]; isolate LIP Ch6): 32 mg/L; bMIC (Candida duobushaemulonii [5]; isolate LIP Ch8): 4 mg/L; bMIC ([6]; isolate LIP Ch5): 32 mg/L; bMIC ([6]; isolate LIP Ch13): 32 mg/L; GM-bMIC (Candida haemulonii [7]): 11.31^* mg/L; bMIC (Candida haemulonii [7]; isolate LIP Ch4): >512 mg/L; bMIC (Candida haemulonii [7]; isolate LIP Ch7): 8 mg/L; bMIC (Candida haemulonii [7]; isolate LIP Ch14): 16 mg/L |
| [Ag+].[O-][Cl+3]([O-])([O-])[O-].c1cnc2c(c1)ccc1cccnc12.c1cnc2c(c1)ccc1cccnc12 [compound 17, [Ag(phen)2]ClO4] | 2.07 µg/mL | 1 µg/mL | 1.76 µM | 1.59 µg/mL | 2 µg/mL | 1 µg/mL | 2 µg/mL | 0.63 µg/mL | 1 µg/mL | 0.5 µg/mL | 0.5 µg/mL | 1 µg/mL | 1 µg/mL | 1 µg/mL | 1 µg/mL | 12.34 mg/L | 10.08 mg/L | 16 mg/L | 8 mg/L | 0.5 mg/L | decrease in activity on going from planktonic to biofilm cells [4]: 12.3 fold; Overall GM-bMIC ([4]; in μM): 21.73 µM; bMIC ([6]; isolate LIP Ch13): 8 mg/L; GM-bMIC (Candida haemulonii [7]): 20.16 mg/L; bMIC (Candida haemulonii [7]; isolate LIP Ch4): 32 mg/L; bMIC (Candida haemulonii [7]; isolate LIP Ch7): 32 mg/L; bMIC (Candida haemulonii [7]; isolate LIP Ch14): 8 mg/L |
| O.O.O.O=C([O-])CCCCCCCCCC(=O)[O-].[Ag+].[Ag+].c1cnc2c(c1)ccc1cccnc12.c1cnc2c(c1)ccc1cccnc12.c1cnc2c(c1)ccc1cccnc12 [compound 18, [Ag2(phen)3(udda)].3H2O] | 13.63 µg/mL | 0.27 µg/mL | 0.26 µM | 0.5 µg/mL | 0.5 µg/mL | 0.25 µg/mL | 1 µg/mL | 0.25 µg/mL | 0.5 µg/mL | 0.125 µg/mL | 0.25 µg/mL | 0.16 µg/mL | 0.125 µg/mL | 0.25 µg/mL | 0.125 µg/mL | 12.34 mg/L | 10.08 mg/L | 16 mg/L | 11.31 mg/L | 0.5 mg/L | decrease in activity on going from planktonic to biofilm cells [4]: 46.3 fold; Overall GM-bMIC ([4]; in μM): 12.04 µM; bMIC (Candida duobushaemulonii [5]; isolate LIP Ch6): 8 mg/L; bMIC (Candida duobushaemulonii [5]; isolate LIP Ch8): 8 mg/L; bMIC ([6]; isolate LIP Ch5): 8 mg/L; bMIC ([6]; isolate LIP Ch13): 16 mg/L; GM-bMIC (Candida haemulonii [7]): 16 mg/L; bMIC (Candida haemulonii [7]; isolate LIP Ch4): 32 mg/L; bMIC (Candida haemulonii [7]; isolate LIP Ch7): 8 mg/L; bMIC (Candida haemulonii [7]; isolate LIP Ch14): 16 mg/L |
